Tested on: 254851-301-R-J1-PDC spheroids, viability % test/control
Test: Anticancer human tumor 254851-301-R-J1-PDC patient-derived colon carcinoma cell line growth inhibition [TAK]
Details: spheroids with HUVEC and MSC; for IC50: curve of first compound; for viability, T/C: stronger effect = lower value
How it was run: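 Drug combinations, each paired with TAK-243 or ipatasertib, were tested on multi-cell spheroids of 60% malignant cells, 25% HUVEC and 15% hMSC. Top concentrations were at or near the clinical Cmax (10 microM if undetermined), decreasing by half-log; viability is given as % test/control.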

[1] = second compound 0.3 µM, first compound 0.0316 µM
[2] = second compound 0.3 µM, first compound 0.1 µM
[3] = second compound 0.3 µM, first compound 0.316 µM
[4] = second compound 0.3 µM, first compound 1 µM
[5] = second compound 0.949 µM, first compound 0.0316 µM
[6] = second compound 0.949 µM, first compound 0.1 µM
[7] = second compound 0.949 µM, first compound 0.316 µM
[8] = second compound 0.949 µM, first compound 1 µM
[9] = second compound 3 µM, first compound 0.0316 µM
[10] = second compound 3 µM, first compound 0.1 µM
[11] = second compound 3 µM, first compound 0.316 µM
[12] = second compound 3 µM, first compound 1 µM
[13] = second compound 9.49 µM, first compound 0.0316 µM
[14] = second compound 9.49 µM, first compound 0.1 µM
[15] = second compound 9.49 µM, first compound 0.316 µM
[16] = second compound 9.49 µM, first compound 1 µM
[17] = second compound 30 µM, first compound 0.0316 µM
[18] = second compound 30 µM, first compound 0.1 µM
[19] = second compound 30 µM, first compound 0.316 µM
[20] = second compound 30 µM, first compound 1 µM
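Also: spheroids exposed to drugs for seven days before viability readout.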
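For viability, T/C in this document: 100% = DMSO vehicle control viability.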

| SMILES | IC50 (second compound 0.3 µM) [µM] | IC50 (second compound 0.949 µM) [µM] | IC50 (second compound 3 µM) [µM] | IC50 (second compound 9.49 µM) [µM] | IC50 (second compound 30 µM) [µM] | viability, T/C [1] [%] | viability, T/C [2] [%] | viability, T/C [3] [%] | viability, T/C [4] [%] | viability, T/C [5] [%] | viability, T/C [6] [%] | viability, T/C [7] [%] | viability, T/C [8] [%] | viability, T/C [9] [%] | viability, T/C [10] [%] | viability, T/C [11] [%] | viability, T/C [12] [%] | viability, T/C [13] [%] | viability, T/C [14] [%] | viability, T/C [15] [%] | also measured |
| --- | --- | --- | --- | --- | --- | --- | --- | --- | --- | --- | --- | --- | --- | --- | --- | --- | --- | --- | --- | --- | --- |
| COc1c(OCCCN2CCOCC2)ccc2c3n(c(=NC(=O)c4cnc(N)nc4)nc12)CCN3 + CC(C)NCC(C(=O)N1CCN(c2ncnc3c2C(C)CC3O)CC1)c1ccc(Cl)cc1 | > 1 | > 1 | > 1 | > 1 | > 1 | 88.2 | 78.1 | 63.7 | 67.6 | 92.5 | 76.3 | 60 | 65 | 95.5 | 82.7 | 76.8 | 67.3 | 101 | 82.4 | 75.8 | viability, T/C (second compound 0.3 µM, first compound 0.00316 µM): 114%; viability, T/C (second compound 0.3 µM, first compound 0.01 µM): 105%; viability, T/C (second compound 0.949 µM, first compound 0.00316 µM): 104%; viability, T/C (second compound 0.949 µM, first compound 0.01 µM): 106%; viability, T/C (second compound 3 µM, first compound 0.00316 µM): 111%; viability, T/C (second compound 3 µM, first compound 0.01 µM): 108%; viability, T/C (second compound 9.49 µM, first compound 0.00316 µM): 99.1%; viability, T/C (second compound 9.49 µM, first compound 0.01 µM): 100%; viability, T/C [16]: 74.4%; viability, T/C (second compound 30 µM, first compound 0.00316 µM): 81.5%; viability, T/C (second compound 30 µM, first compound 0.01 µM): 85.1%; viability, T/C [17]: 84.2%; viability, T/C [18]: 71.5%; viability, T/C [19]: 69.8%; viability, T/C [20]: 59.9% |
| Cc1nc(NC(=O)N2CCCC2C(N)=O)sc1-c1ccnc(C(C)(C)C(F)(F)F)c1 (stereo not given) + CC(C)NCC(C(=O)N1CCN(c2ncnc3c2C(C)CC3O)CC1)c1ccc(Cl)cc1 | > 10 | > 10 | > 10 | > 10 | > 10 | 117 | 102 | 109 | 89.4 | 106 | 114 | 93.6 | 99.5 | 113 | 101 | 98 | 94.6 | 105 | 106 | 101 | viability, T/C (second compound 0.3 µM, first compound 3.16 µM): 79.4%; viability, T/C (second compound 0.3 µM, first compound 10 µM): 73.4%; viability, T/C (second compound 0.949 µM, first compound 3.16 µM): 83.1%; viability, T/C (second compound 0.949 µM, first compound 10 µM): 69%; viability, T/C (second compound 3 µM, first compound 3.16 µM): 79.3%; viability, T/C (second compound 3 µM, first compound 10 µM): 73.9%; viability, T/C [16]: 97.3%; viability, T/C (second compound 9.49 µM, first compound 3.16 µM): 85%; viability, T/C (second compound 9.49 µM, first compound 10 µM): 74.8%; viability, T/C [17]: 82.5%; viability, T/C [18]: 99.3%; viability, T/C [19]: 88.4%; viability, T/C [20]: 79.4%; viability, T/C (second compound 30 µM, first compound 3.16 µM): 79.4%; viability, T/C (second compound 30 µM, first compound 10 µM): 69.4% |

From PubChem BioAssay AID2060358 (Molecular Pharmacology Branch, DTP, NCI, 2025)
